Values joined by “and” are separate entries in the source; they are usually repeats but may differ in a detail not shown here. Equal values may be shown once.
What was measured:
dengue fever virus = test: Experimental form of dengue fever, virus proliferation in the blood of white mice; assay type: in vivo; conditions: for Level of virus accumulation in the blood, lg PFU/ml: infected intracerebrally
Description: To determine antiviral activity, white mice were infected intracerebrally with a dengue fever virus. […] Infected animals were monitored for 21 days. Biological samples were evaluated on day 5 after infection.

[1] = tested on: West Nile virus strain Eg101; test: Experimental form of West Nile Fever in white mice; conditions: for Protective ratio, % / Average lifetime / Extension of the average lifetime, Δ: 5 mg/kg orally; for Protective ratio, %: 10LD50 subcutaneously; for Average lifetime / Extension of the average lifetime, Δ: 10LD50
Description: In the experiment West Nile virus strain Eg101 was used. Infected animals were monitored for 21 days. Their death was controlled, and the average lifetime of the white mice were calculated in the experimental and control groups.
The main criteria of the in vivo effectiveness were the values of protection of the laboratory animals against death and the average lifetime of the animals in a group.

TBE virus strain Sof′ in = tested on: TBE virus strain Sof′ in; parameters: species or system white mice; conditions: mouse, in vivo
[2] = tested on: human rhinovirus strain (HRV 1B); test: Antiviral activity against human rhinovirus on an in vivo experimental model (virus in mouse lungs); parameters: species or system mice; conditions: for Infectious virus titer in lungs, lg, TCID50: orally once daily for 3 days from 12 h after infection; for Suppression of the virus reproduction (Δ lg): orally once daily for 3 days, vs normal saline
[3] = Adverse side effects during long-term administration; conditions: long-term administration in therapeutic doses or doses greater by an order of magnitude
HCXV virus = test: Protective effectiveness against Coxsackie virus (HCXV) infection in mice; assay type: in vivo, white mice; conditions: for Total mortality rate: 10LD50 intramuscularly
[4] = ribavirin, treatment scheme +24 h to +120 h
[5] = 20 mg/kg, treatment scheme +24 h to +120 h
[6] = 5 mg/kg orally, prevention scheme −96 h to −1 h
[7] = 5 mg/kg orally, treatment scheme +24 h to +168 h
[8] = 30/15 mg/kg, treatment scheme +24 h to +120 h
[9] = 0.3 mg/kg orally once daily for 5 days from 24 h after infection
[10] = 3 mg/kg orally once daily for 5 days from 24 h after infection
[11] = 30 mg/kg orally once daily for 5 days from 24 h after infection
[12] = prevention scheme −96 h to −1 h
[13] = treatment scheme +24 h to +168 h
[14] = 30 mg/kg, single administration −144 h before infection

SMILES: NC(=O)c1ncn([C@@H]2O[C@H](CO)[C@@H](O)[C@H]2O)n1 [Ribavirin, ribavirin, reference compound]
- Degree of inhibition of the virus accumulation, % (dengue fever virus; [4]): 83.4%
- Reduction in the level of virus accumulation, lg (dengue fever virus; [4]): 1.0 lg
- Level of virus accumulation in the blood, lg PFU/ml (dengue fever virus; [4]): 6.4 lg PFU/ml
- Protection against death, % of animals ([1]; 20 mg/kg, prevention scheme): 50%
- Average lifetime of animals in a group [1, 5]: 7.2 days
- Extension of the average lifetime of animals in a group, Δ [1, 5]: 0.2 days
- Protection against death, % [1, 5]: 10.0%

SMILES: O=C(O)CCCC(=O)NCCc1c[nH]cn1 [Glutaryl histamine, glutaryl histamine]
- Average lifetime (TBE virus strain Sof′ in): 15.1 days and 15.4 days and 13.6 days and 10.5 days and 10.1 days
- Extension of the average lifetime (TBE virus strain Sof′ in): 3.1 days and 3.2 days
- Extension of the average lifetime, Δ (TBE virus strain Sof′ in): 3.9 days and 2.4 days
- Protection against death, % (TBE virus strain Sof′ in): 30.0% and 40.0%
- Protective ratio, % (TBE virus strain Sof′ in): 40% and 35%
- Infectious virus titer in lungs, lg, TCID50 ([2]; 15 mg/ml, 48 hrs): 2.8 ± 0.4 lg, TCID50
- Infectious virus titer in lungs, lg, TCID50 ([2]; 15 mg/ml, 72 hrs): 2.1 ± 0.3 lg, TCID50
- Suppression of the virus reproduction (Δ lg) ([2]; 15 mg/ml, 48 hrs): 1.3 Δ lg
- Suppression of the virus reproduction (Δ lg) ([2]; 15 mg/ml, 72 hrs): 1.1 Δ lg
- Infectious virus titer in lungs, lg, TCID50 ([2]; 30 mg/ml, 48 hrs): 1.5 ± 0.3 lg, TCID50
- Infectious virus titer in lungs, lg, TCID50 ([2]; 30 mg/ml, 72 hrs): 1.0 ± 0.3 lg, TCID50
- Suppression of the virus reproduction (Δ lg) ([2]; 30 mg/ml, 48 hrs): 2.6 Δ lg
- Suppression of the virus reproduction (Δ lg) ([2]; 30 mg/ml, 72 hrs): 2.2 Δ lg
- Degree of inhibition of the virus accumulation, % (dengue fever virus; [6]): 95.5%
- Reduction in the level of virus accumulation, lg (dengue fever virus; [6]): 1.6 lg
- Level of virus accumulation in the blood, lg PFU/ml (dengue fever virus; 5 mg/kg orally, prevention scheme −96 h to −1 h, day 5 after infection): 5.0 lg PFU/ml
- Degree of inhibition of the virus accumulation, % (dengue fever virus; [7]): 98.6%
- Reduction in the level of virus accumulation, lg (dengue fever virus; [7]): 1.8 lg
- Level of virus accumulation in the blood, lg PFU/ml (dengue fever virus; 5 mg/kg orally, treatment scheme +24 h to +168 h, day 5 after infection): 4.8 lg PFU/ml
- Degree of inhibition of the virus accumulation, % (dengue fever virus; [8]): 99.6%
- Reduction in the level of virus accumulation, lg (dengue fever virus; [8]): 2.6 lg
- Level of virus accumulation in the blood, lg PFU/ml (dengue fever virus; [8]): 4.8 lg PFU/ml
- Adverse side effects [3]: no adverse side effects have been registered
- Average lifetime, (%) (HCXV virus; [9]): 24.4%
- Extension of the days lifetime, Δ, days (HCXV virus; [9]): +14.4 days
- Protective ratio, % average (HCXV virus; [9]): 45.4%
- Total mortality rate (HCXV virus; [9]): 42.9
- Average lifetime, (%) (HCXV virus; [10]): 21.7%
- Extension of the days lifetime, Δ, days (HCXV virus; [10]): +11.7 days
- Protective ratio, % average (HCXV virus; [10]): 36.4%
- Total mortality rate (HCXV virus; [10]): 50.0
- Average lifetime, (%) (HCXV virus; [11]): 19.6%
- Extension of the days lifetime, Δ, days (HCXV virus; [11]): +9.6 days
- Protective ratio, % average (HCXV virus; [11]): 27.4%
- Total mortality rate (HCXV virus; [11]): 57.1
- Protective ratio, % ([1]; prevention scheme −96 h, −72 h, −48 h, −24 h, −1 h): 42.9%
- Average lifetime [1, 12]: 11.2 days
- Extension of the average lifetime, Δ [1, 12]: 4.2 days
- Average lifetime [1, 13]: 9.8 days
- Extension of the average lifetime, Δ [1, 13]: 2.8 days
- Protective ratio, % [1, 13]: 37.8%
- Average lifetime of animals in a group [1, 14]: 10.8 days
- Extension of the average lifetime of animals in a group, Δ [1, 14]: 3.7 days
- Protection against death, % [1, 14]: 40.0%
- Protection against death, % ([1]; 30/15 mg/kg, treatment scheme +24 h, +48 h, +72 h, +96 h, +120 h): 50.0%
- Average lifetime of animals in a group [1, 8]: 11.5 days
- Extension of the average lifetime of animals in a group, Δ [1, 8]: 4.5 days
- Extension of the average lifetime of animals in a group, Δ ([1]; 30/15 mg/kg, treatment scheme +24 h to +120 h, listed as glutaryl histamine): 3.5 days
